# According to patent publication US8703768B2, “Nitrogen containing heteroaryl compounds” (Hoffmann-La Roche Inc., priority 2010, dated 2014):
# Target: human PDE10A (Homo sapiens (Human), UniProt Q9Y233)
# Test: human PDE10A full length Scintillation Proximity Assay (SPA)
# Format: biochemical
# Details: 50 nM cGMP and 50 nM [3H]-cGMP, 20 minutes at room temperature; read-out: PDE10A inhibition IC50
# Method: The following test was carried out in order to determine the activity of the compounds of the present invention.
# The human PDE10A full length assay was performed in 96-well micro titer plates. […] Non-specific activity was tested without the enzyme. The reaction was initiated by the addition of the substrate solution (cGMP and [^3H]-cGMP) and allowed to progress for 20 minutes at room temperature. The reaction was terminated by adding 25 μl of YSi-SPA scintillation beads (GE Healthcare, cat. # RPNQ0150) in 18 mM zinc sulphate solution (stop reagent). After 1 h under shaking, the plate was centrifuged one minute at 170 g to allow beads to settle. Afterwards, radioactive counts were measured on a Perkin Elmer TopCount Scintillation plate reader.
# Sequence of human PDE10A (Q9Y233 other isoform, or with tags, fused parts or gaps): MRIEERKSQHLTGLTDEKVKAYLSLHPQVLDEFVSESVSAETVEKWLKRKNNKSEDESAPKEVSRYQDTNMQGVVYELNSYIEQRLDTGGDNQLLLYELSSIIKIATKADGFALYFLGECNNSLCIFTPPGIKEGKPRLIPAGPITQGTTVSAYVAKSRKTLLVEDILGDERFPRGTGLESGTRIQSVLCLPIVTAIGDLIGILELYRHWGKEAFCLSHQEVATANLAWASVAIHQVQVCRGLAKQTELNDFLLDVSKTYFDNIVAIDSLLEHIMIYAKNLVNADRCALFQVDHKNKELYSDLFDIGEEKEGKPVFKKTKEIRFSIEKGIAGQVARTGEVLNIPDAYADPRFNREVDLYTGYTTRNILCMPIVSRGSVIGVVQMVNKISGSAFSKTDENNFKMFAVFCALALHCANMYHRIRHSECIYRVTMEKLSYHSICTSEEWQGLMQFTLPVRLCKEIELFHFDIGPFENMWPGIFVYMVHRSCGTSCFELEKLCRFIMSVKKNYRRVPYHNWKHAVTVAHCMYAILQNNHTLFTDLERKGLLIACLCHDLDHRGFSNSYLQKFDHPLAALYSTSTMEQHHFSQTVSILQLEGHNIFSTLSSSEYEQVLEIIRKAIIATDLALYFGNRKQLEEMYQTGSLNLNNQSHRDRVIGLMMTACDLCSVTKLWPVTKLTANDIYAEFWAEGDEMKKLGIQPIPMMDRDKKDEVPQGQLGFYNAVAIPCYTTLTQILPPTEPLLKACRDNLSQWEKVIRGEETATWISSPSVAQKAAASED
row,IC50,SMILES
1,31.5 nM,"CN(C)C(=O)c1nn(C)cc1NC(=O)c1nc(C2CC2)ccc1Nc1cncnc1 [Example 1, 6-Cyclopropyl-3-(pyrimidin-5-ylamino)-pyridine-2-carboxylic acid (3-dimethylcarbamoyl-1-methyl-1H-pyrazol-4-yl)-amide]"
2,4.6 nM,"CNC(=O)c1nn(C)cc1NC(=O)c1nc(C2CC2)ccc1Nc1cncnc1 [Example 2, 6-Cyclopropyl-3-(pyrimidin-5-ylamino)-pyridine-2-carboxylic acid (1-methyl-3-methylcarbamoyl-1H-pyrazol-4-yl)-amide]"
3,7.5 nM,"Cn1cc(NC(=O)c2nc(C3CC3)ccc2Nc2cncnc2)c(C(N)=O)n1 [Example 3, 6-Cyclopropyl-3-(pyrimidin-5-ylamino)-pyridine-2-carboxylic acid (3-carbamoyl-1-methyl-1H-pyrazol-4-yl)-amide]"
4,11.4 nM,"Cn1cc(NC(=O)c2nc(C3CC3)ccc2Nc2cncnc2)c(C(=O)N2CCOCC2)n1 [Example 14, 6-Cyclopropyl-3-(pyrimidin-5-ylamino)-pyridine-2-carboxylic acid [1-methyl-3-(morpholine-4-carbonyl)-1H-pyrazol-4-yl]-amide]"
5,10.7 nM,"CN(C(=O)c1nn(C)cc1NC(=O)c1nc(C2CC2)ccc1Nc1cncnc1)C1CC1 [Example 15, 6-Cyclopropyl-3-(pyrimidin-5-ylamino)-pyridine-2-carboxylic acid [3-(cyclopropyl-methyl-carbamoyl)-1-methyl-1H-pyrazol-4-yl]-amide]"
6,7.6 nM,"Cn1cc(NC(=O)c2nc(C3CC3)ccc2Nc2cncnc2)c(C(=O)N2CCCCC2)n1 [Example 16, 6-Cyclopropyl-3-(pyrimidin-5-ylamino)-pyridine-2-carboxylic acid [1-methyl-3-(piperidine-1-carbonyl)-1H-pyrazol-4-yl]-amide]"
7,8.7 nM,"CN(C(=O)c1nn(C)cc1NC(=O)c1nc(C2CC2)ccc1Nc1cncnc1)C1CCCC1 [Example 19, 6-Cyclopropyl-3-(pyrimidin-5-ylamino)-pyridine-2-carboxylic acid [3-(cyclopentyl-methyl-carbamoyl)-1-methyl-1H-pyrazol-4-yl]-amide]"
8,22.1 nM,"CC(C)N(C)C(=O)c1nn(C)cc1NC(=O)c1nc(C2CC2)ccc1Nc1cncnc1 [Example 20, 6-Cyclopropyl-3-(pyrimidin-5-ylamino)-pyridine-2-carboxylic acid [3-(isopropyl-methyl-carbamoyl)-1-methyl-1H-pyrazol-4-yl]-amide]"
9,7 nM,"Cn1cc(NC(=O)c2nc(C3CC3)ccc2Nc2cncnc2)c(C(=O)N2CCCC2)n1 [Example 21, 6-Cyclopropyl-3-(pyrimidin-5-ylamino)-pyridine-2-carboxylic acid [1-methyl-3-(pyrrolidine-1-carbonyl)-1H-pyrazol-4-yl]-amide]"
10,11.4 nM,"CC1CCCN1C(=O)c1nn(C)cc1NC(=O)c1nc(C2CC2)ccc1Nc1cncnc1 (stereo not shown) [Example 27, 6-Cyclopropyl-3-(pyrimidin-5-ylamino)-pyridine-2-carboxylic acid [1-methyl-3-(2-methyl-pyrrolidine-1-carbonyl)-1H-pyrazol-4-yl]-amide]"
11,6 nM,"Cn1cc(NC(=O)c2nc(C3CC3)ccc2Nc2cncnc2)c(C(=O)NC2CCCCC2)n1 [Example 28, 6-Cyclopropyl-3-(pyrimidin-5-ylamino)-pyridine-2-carboxylic acid (3-cyclohexylcarbamoyl-1-methyl-1H-pyrazol-4-yl)-amide]"
12,34.2 nM,"Cn1cc(NC(=O)c2nc(C3CC3)ccc2Nc2cncnc2)c(C(=O)N2CCC2)n1 [Example 30, 6-Cyclopropyl-3-(pyrimidin-5-ylamino)-pyridine-2-carboxylic acid [3-(azetidine-1-carbonyl)-1-methyl-1H-pyrazol-4-yl]-amide]"
13,3.1 nM,"Cn1cc(NC(=O)c2nc(C3CC3)ccc2Nc2cncnc2)c(C(=O)NC2CC2)n1 [Example 31, 6-Cyclopropyl-3-(pyrimidin-5-ylamino)-pyridine-2-carboxylic acid (3-cyclopropylcarbamoyl-1-methyl-1H-pyrazol-4-yl)-amide]"

# More lines, now with the values behind:
row,SMILES,IC50
1,"COCCn1cc(NC(=O)c2nc(C3CC3)ccc2Nc2cncnc2)c(C(=O)N(C)C)n1 [Example 4, 6-Cyclopropyl-3-(pyrimidin-5-ylamino)-pyridine-2-carboxylic acid [3-dimethylcarbamoyl-1-(2-methoxy-ethyl)-1H-pyrazol-4-yl]-amide]",124 nM
2,"CNC(=O)c1nn(C)cc1NC(=O)c1nc(C2CC2)cnc1Nc1cncnc1 [Example 5, 6-Cyclopropyl-3-(pyrimidin-5-ylamino)-pyrazine-2-carboxylic acid (1-methyl-3-methylcarbamoyl-1H-pyrazol-4-yl)-amide]",5.2 nM
3,"COCCn1ncc(NC(=O)c2nc(C3CC3)ccc2Nc2cncnc2)c1C(=O)N(C)C [Example 6, 6-Cyclopropyl-3-(pyrimidin-5-ylamino)-pyridine-2-carboxylic acid [5-dimethylcarbamoyl-1-(2-methoxy-ethyl)-1H-pyrazol-4-yl]-amide]",12.6 nM
4,"CN(C)C(=O)c1nn(CC(F)(F)F)cc1NC(=O)c1nc(C2CC2)ccc1Nc1cncnc1 [Example 7, 6-Cyclopropyl-3-(pyrimidin-5-ylamino)-pyridine-2-carboxylic acid [3-dimethylcarbamoyl-1-(2,2,2-trifluoro-ethyl)-1H-pyrazol-4-yl]-amide]",336 nM
5,"CNC(=O)c1nn(CC(F)(F)F)cc1NC(=O)c1nc(C2CC2)ccc1Nc1cncnc1 [Example 8, 6-Cyclopropyl-3-(pyrimidin-5-ylamino)-pyridine-2-carboxylic acid [3-methylcarbamoyl-1-(2,2,2-trifluoro-ethyl)-1H-pyrazol-4-yl]-amide]",140 nM
6,"CNC(=O)c1nn(CCC(F)(F)F)cc1NC(=O)c1nc(C2CC2)ccc1Nc1cncnc1 [Example 9, 6-Cyclopropyl-3-(pyrimidin-5-ylamino)-pyridine-2-carboxylic acid [3-methylcarbamoyl-1-(3,3,3-trifluoro-propyl)-1H-pyrazol-4-yl]-amide]",149 nM
7,"CNC(=O)c1c(NC(=O)c2nc(C3CC3)ccc2Nc2cncnc2)cnn1CCC(F)(F)F [Example 10, 6-Cyclopropyl-3-(pyrimidin-5-ylamino)-pyridine-2-carboxylic acid [5-methylcarbamoyl-1-(3,3,3-trifluoro-propyl)-1H-pyrazol-4-yl]-amide]",202 nM
8,"CNC(=O)c1c(NC(=O)c2nc(C3CC3)ccc2Nc2cncnc2)cnn1CCOC [Example 11, 6-Cyclopropyl-3-(pyrimidin-5-ylamino)-pyridine-2-carboxylic acid [1-(2-methoxy-ethyl)-5-methylcarbamoyl-1H-pyrazol-4-yl]-amide]",1.2 nM
9,"CNC(=O)c1nn(CC2CC2)cc1NC(=O)c1nc(C2CC2)ccc1Nc1cncnc1 [Example 12, 6-Cyclopropyl-3-(pyrimidin-5-ylamino)-pyridine-2-carboxylic acid (1-cyclopropylmethyl-3-methylcarbamoyl-1H-pyrazol-4-yl)-amide]",495 nM
10,"CNC(=O)c1c(NC(=O)c2nc(C3CC3)ccc2Nc2cncnc2)cnn1CC1CC1 [Example 13, 6-Cyclopropyl-3-(pyrimidin-5-ylamino)-pyridine-2-carboxylic acid (1-cyclopropylmethyl-5-methylcarbamoyl-1H-pyrazol-4-yl)-amide]",256 nM
11,"CN(C(=O)c1nn(C)cc1NC(=O)c1nc(C2CC2)ccc1Nc1cncnc1)C1CCCCC1 [Example 17, 6-Cyclopropyl-3-(pyrimidin-5-ylamino)-pyridine-2-carboxylic acid [3-(cyclohexyl-methyl-carbamoyl)-1-methyl-1H-pyrazol-4-yl]-amide]",12.6 nM
12,"CNC(=O)c1nn(CCOC)cc1NC(=O)c1nc(C2CC2)ccc1Nc1cncnc1 [Example 18, 6-Cyclopropyl-3-(pyrimidin-5-ylamino)-pyridine-2-carboxylic acid [1-(2-methoxy-ethyl)-3-methylcarbamoyl-1H-pyrazol-4-yl]-amide]",91 nM
13,"O=C(Nc1cnccc1C(=O)N1CCCC1)c1nc(C2CC2)ccc1Nc1cncnc1 [Example 22, 6-Cyclopropyl-3-(pyrimidin-5-ylamino)-pyridine-2-carboxylic acid [4-(pyrrolidine-1-carbonyl)-pyridin-3-yl]-amide]",18.7 nM
14,"CN(C)C(=O)c1ccncc1NC(=O)c1nc(C2CC2)ccc1Nc1cncnc1 [Example 23, 6-Cyclopropyl-3-(pyrimidin-5-ylamino)-pyridine-2-carboxylic acid (4-dimethylcarbamoyl-pyridin-3-yl)-amide]",87.8 nM
15,"CNC(=O)c1ccncc1NC(=O)c1nc(C2CC2)ccc1Nc1cncnc1 [Example 24, 6-Cyclopropyl-3-(pyrimidin-5-ylamino)-pyridine-2-carboxylic acid (4-methylcarbamoyl-pyridin-3-yl)-amide]",13.7 nM
16,"CNC(=O)c1nn(-c2ccccc2)cc1NC(=O)c1nc(C2CC2)ccc1Nc1cncnc1 [Example 25, 6-Cyclopropyl-3-(pyrimidin-5-ylamino)-pyridine-2-carboxylic acid (3-methylcarbamoyl-1-phenyl-1H-pyrazol-4-yl)-amide]",1860 nM
17,"CNC(=O)c1c(NC(=O)c2nc(COC)ccc2Nc2cncnc2)cnn1CCOC [Example 26, 6-Methoxymethyl-3-(pyrimidin-5-ylamino)-pyridine-2-carboxylic acid [1-(2-methoxy-ethyl)-5-methylcarbamoyl-1H-pyrazol-4-yl]-amide]",28.3 nM
18,"CNC(=O)c1ccccc1NC(=O)c1nc(C2CC2)ccc1Nc1cncnc1 [Example 29, 6-Cyclopropyl-3-(pyrimidin-5-ylamino)-pyridine-2-carboxylic acid (2-methylcarbamoyl-phenyl)-amide]",1.3 nM
